In patent US12577219B2, “Macrolide brefeldin a ester derivatives and use thereof” (OCEAN UNIVERSITY OF CHINA, priority 2019, dated 2026):
Converted amounts (≈) assume the structure as drawn.

Tests used:
[1] = system: human breast cancer MCF7 cells; assay: Cell proliferation assay (CCK-8); assay type: cell-based; conditions: MCF7, 72 h
Source text: (§1) CCK-8 method: The CCK-8 method is a highly sensitive, non-radioactive colorimetric assay for the determination of the number of viable cells in cell proliferation or cytotoxicity assays. The orange formazan dye produced by the bioreduction of CCK-8 by intracellular dehydrogenase is soluble in the cell culture medium, and the amount of formazan dye produced is proportional to the number of living cells. The kit used in this method is the tetrazolium salt-WST-8 (2-(2-methoxy-4-nitrophenyl)-3-(4-nitrophenyl)-5-(2,4-disulfophenyl)-2H-tetrazolium monosodium salt) developed by Dojindo Chemical Research Institute (Dojindo), which is capable of being reduced to a water-soluble formazan dye in the presence of the electronic carrier 1-Methoxy PMS.
(§2) Human cervical cancer Hela cells, pancreatic cancer PANC-1cells, esophageal cancer Eca-109 cells, human leukemia K562 cells, human lung cancer A549 cells, human liver cancer HepG2 cells, human gastric cancer MKN-45 cells, human breast cancer MCF7 cells were cultured in DMEM medium containing 10% FBS (fetal bovine serum), 100 U/mL penicillin and 100 μg/ml streptomycin. Hepatocellular carcinoma cells Bel-7402 were cultured in RPMI-1640 medium containing 10% FBS (fetal bovine serum), 100 U/ml penicillin and 100 μg/ml streptomycin. All cells were placed in a cell culture incubator at 37° C. with 5% CO2. Cells fluid was changed every 3-5 days, and after 80% cell fusion, trypsin digestion and passaging were performed to keep the cells in good logarithmic growth phase.
(§3) All the samples to be tested were dissolved in DMSO.
(§4) Cells in logarithmic growth phase were inoculated in 96-well plates with 5000 cells/well respectively, and after 24 h of incubation, samples were added (final concentrations as shown in the table), and biplicate wells were set up for each sample. The amount of solvent of DMSO was not higher than 2%. After 72 h, 10 μL of CCK-8 solution was added to each well and incubated for 1.5˜3 h at 37° C. The OD value at 450 nm was measured on an plate reader. Inhibition rate (%)=(1−[(OD450 dosed well−OD450 blank well)/(OD450 control well−OD450 blank well)])×100%
(§5) The fitted IC50 values were calculated using the log (inhibitor) vs. response—Variable slop analysis method in GraphPad Prism software.

[2] = system: human lung cancer A549 cells; assay: Cell proliferation assay (CCK-8); assay type: cell-based; conditions: A549, 72 h
Source text: as §1, §2, §3, §4, §5

[3] = system: human liver cancer HepG2 cells; assay: Cell proliferation assay (CCK-8); assay type: cell-based; conditions: HepG2, 72 h
Source text: as §1, §2, §3, §4, §5

[4] = system: human gastric cancer MKN-45 cells; assay: Cell proliferation assay (CCK-8); assay type: cell-based; conditions: MKN-45, 72 h
Source text: as §1, §2, §3, §4, §5

[5] = system: Human cervical cancer Hela cells; assay: Cell proliferation assay (CCK-8); assay type: cell-based; conditions: 72 h
Source text: as §1, §2, §3, §4, §5

[6] = system: human leukemia K562 cells; assay: Cell proliferation assay (CCK-8); assay type: cell-based; conditions: K562, 72 h
Source text: as §1, §2, §3, §4, §5

[7] = system: pancreatic cancer PANC-1cells; assay: Cell proliferation assay (CCK-8); assay type: cell-based, human; conditions: PANC-1, 72 h
Source text: as §1, §2, §3, §4, §5

[8] = system: esophageal cancer Eca-109 cells; assay: Cell proliferation assay (CCK-8); assay type: cell-based, human; conditions: Eca-109, 72 h
Source text: as §1, §2, §3, §4, §5

[9] = Solubility test (shaker 37° C., 24 h, HPLC); conditions: 37° C., 24 h, x ± s, n = 3
Method: The term “solubility” refers to the mass of solute dissolved when a solid substance reaches saturation state in 100 g solvent at a certain temperature.
Methods: Excess BFA and the compounds disclosed herein were added to 10 mL of three solvents, methanol, acetone and 5% DMSO+95% H2O, respectively, and shaken on a shaker at 37° C. at 100 r/min for 24 h. After 24 h, the samples were centrifuged at 15,000 r/min for 15 min to remove the undissolved compounds. The supernatant was filtered using a 0.45 μm membrane filter. The supernatant was appropriately diluted with methanol and contents of the compounds were determined by HPLC method to calculate the solubility.

[10] = system: Kunming breed mice; assay: Toxicity test after intraperitoneal administration to mice; assay type: in vivo; conditions: ip.; for Organ abnormality at anatomy: anatomy on the 14 th day; for Mental condition of the animals after administration: high and low doses; for Deaths after administration: high and low doses (BFA effective amount conversion), 14 d
Description: Objective: Observation of toxic effects of compounds after intraperitoneally administration (ip.) to mice
1) Agents: Compounds disclosed herein were formulated to a suitable concentration.
2) Animals: Kunming breed mice, weight 18-22 g, male. Provided by Jinan Pengyue Laboratory Animal Breeding Co., Ltd. Animal license number: SCXK (Shandong 20140007)
Method: Kunming breed mice, were randomly grouped by weight, 6 mice per group, namely normal control group, BFA high and low dose groups (100 mg/kg and 50 mg/kg, respectively), and high and low dose groups of some compounds disclosed herein (BFA effective amount conversion). […] After 14 d of continuous administration, all the animals were weighed, and the animals were executed to observe whether there were any abnormalities in the organs.

COc1cccc2c1C(=O)c1c(O)c3c(c(O)c1C2=O)C[C@@](O)(C(=O)CO)C[C@@H]3O[C@H]1C[C@H](N)[C@H](O)[C@H](C)O1 [Adriamycin] gave an IC50 ([1]; Homo sapiens) of 1000 to 10000 nM, an IC50 ([2]; Homo sapiens) of 100 to 1000 nM and an IC50 ([3]; Homo sapiens) of over 10000 nM. It also gave an IC50 ([4]; Homo sapiens) of 100 to 1000 nM, an IC50 ([5]; Homo sapiens) of 100 to 1000 nM and an IC50 ([6]; Homo sapiens) of 1000 to 10000 nM. The IC50 ([7]; Homo sapiens) was under 100 nM and the IC50 ([8]; Homo sapiens) was 100 to 1000 nM.
C[C@H]1CCC/C=C/[C@@H]2C[C@H](O)C[C@H]2[C@H](O)/C=C/C(=O)O1 [BFA, Brefeldin A] gave an IC50 [1] of under 100 nM, an IC50 [2] of 100 to 1000 nM and an IC50 [3] of 100 to 1000 nM. The IC50 [4] was 100 to 1000 nM, the IC50 [5] was 100 to 1000 nM and the IC50 [6] was 100 to 1000 nM. The “Solubility, 5% DMSO + 95% H2O” value ([9]; 5% DMSO + 95% H2O) was 85 ± 30 µg/mL, the “Solubility, Acetone” value ([9]; acetone) was 3130 ± 1240 µg/mL (≈ 11.2 mM) and the “Solubility, Methanol” value ([9]; methanol) was 3130 ± 1240 µg/mL (≈ 11.2 mM). It also gave an IC50 [7] of under 100 nM and an IC50 [8] of 100 to 1000 nM.
For C[C@H]1CCC/C=C/[C@@H]2C[C@H](OC(=O)/C=C/c3cccc(F)c3)C[C@H]2[C@H](O)/C=C/C(=O)O1 [Compound 1a, 7-O-(3-fluorocinnamic acid)acyl BFA], the “Organ abnormality at anatomy” value [10] was “no significant abnormality in all organs”, the “Mental condition of the animals after administration” value (from here on “Mental condition of the animals”) [10] was “good mental condition” and the Deaths after administration [10] was “no deaths”.
With C[C@H]1CCC/C=C/[C@@H]2C[C@H](O)C[C@H]2[C@H](OC(=O)/C=C/c2cccc(F)c2)/C=C/C(=O)O1 [Compound 1b, 4-O-(3-fluorocinnamic acid)acyl BFA] the “Organ abnormality at anatomy” value [10] was “no significant abnormality in all organs”, the “Mental condition of the animals” value [10] was “good mental condition” and the Deaths after administration [10] was “no deaths”.
For C[C@H]1CCC/C=C/[C@@H]2C[C@H](OC(=O)/C=C/c3cccc(F)c3)C[C@H]2[C@H](OC(=O)/C=C/c2cccc(F)c2)/C=C/C(=O)O1 [Compound 1c, 4,7-O-bis(3-fluorocinnamic acid)acyl BFA], the “Organ abnormality at anatomy” value [10] was “no significant abnormality in all organs”, the “Mental condition of the animals” value [10] was “good mental condition” and the Deaths after administration [10] was “no deaths”.
With C[C@H]1CCC/C=C/[C@@H]2C[C@H](O)C[C@H]2[C@H](OC(=O)/C=C/c2ccc3c(c2)OCO3)/C=C/C(=O)O1 [Compound 9b, 4-O-((E)-3-(benzo[d][1,3]dioxa-5-yl)acrylic acid)acyl BFA] the IC50 [1] was 100 to 1000 nM, the IC50 [2] was 100 to 1000 nM and the IC50 [3] was 1000 to 10000 nM. The IC50 [4] was 100 to 1000 nM, the IC50 [5] was 1000 to 10000 nM and the IC50 [6] was 100 to 1000 nM. The IC50 [7] was 100 to 1000 nM and the IC50 [8] was 1000 to 10000 nM.
In the case of C[C@H]1CCC/C=C/[C@@H]2C[C@H](OC(=O)/C=C/c3ccc(N(C)C)cc3)C[C@H]2[C@H](O)/C=C/C(=O)O1 [Compound 10a, 7-O-(4-dimethylaminocinnamic acid)acyl BFA], the “Organ abnormality at anatomy” value [10] is reported as “no significant abnormality in all organs”, the “Mental condition of the animals” value [10] is reported as “good mental condition” and the Deaths after administration [10] is reported as “no deaths”.
In the case of C[C@H]1CCC/C=C/[C@@H]2C[C@H](O)C[C@H]2[C@H](OC(=O)/C=C/c2ccc(N(C)C)cc2)/C=C/C(=O)O1 [Compound 10b, 4-O-(4-dimethylaminocinnamic acid)acyl BFA], the “Organ abnormality at anatomy” value [10] is reported as “no significant abnormality in all organs”, the “Mental condition of the animals” value [10] is reported as “good mental condition” and the Deaths after administration [10] is reported as “no deaths”.
